Laboratory results from PubChem BioAssay AID463229 (Broad Institute, 2010).

These compounds were tested on INS-1E rat beta cells, no cytokines, CellTiter-Glo ATP, 48 h (assay: cytokine-free beta-cell viability effect – INS-1E rat cells, ATP luminescence, cherry pick, counter-screen for beta-cell apoptosis protection project, dose response (AID 463229)).

| SMILES | AC50 |
| --- | --- |
| CC1=NN(c2ccc(C)c(C)c2)C(=O)/C1=C\C=C\c1ccc([N+](=O)[O-])o1 | 7.6 µM |
| CSc1nc(N)nc2c1ncn2CC(=O)N1CCN(Cc2c(C)cc(C)cc2C)CC1 | 2.65 µM |
| O=C(NCC1COc2ccccc2O1)c1cccc(S(=O)(=O)NCc2ccccc2)c1 (configuration not stated) | 8.8 µM |
| Cc1ccccc1OCCn1c(C)nc2ccccc21 | 15.2 µM |
| Cc1ccc2[nH]c(C(=O)N/N=C/c3ccccc3O)c(C)c2c1 | 2.33 µM |
| CNC[C@H](CC1CCCCC1)NC[C@H](Cc1ccccc1)NCCC12CC3CC(CC(C3)C1)C2 | 4.44 µM |
| N#C/C(=C\c1ccc([N+](=O)[O-])o1)c1nc2ccccc2[nH]1 | 4.09 µM |
| COc1ccc(C(=O)NC(=S)NNC(=O)c2cnccn2)cc1OC | 7.95 µM |
| CCOC(=O)N1CCN(S(=O)(=O)c2ccc(C(=O)NNc3nc4ccc(Cl)cc4s3)cc2)CC1 | 5.43 µM |
| Cc1ccc2c(c1)S/C(=C/c1ccc[n+](CCO)c1)N2C | 3 µM |
| CCN(CC)S(=O)(=O)c1cc(NC(=O)CNc2cccc(S(=O)(=O)N3CCCC3)c2)ccc1C | 7.43 µM |
| O=C(Nc1ccc(Cl)cc1)/C(=C/c1cccc(O)c1)c1nc2ccccc2s1 | 4.46 µM |
| CCCCC(=O)NC(c1ccccc1Cl)c1ccc2cccnc2c1O (configuration not stated) | 2.09 µM |
| CCCC(=O)NC(c1ccccc1OC)c1ccc2cccnc2c1O (configuration not stated) | 3.28 µM |
| CC(=O)NC(c1cccs1)c1cc([N+](=O)[O-])c2cccnc2c1O (configuration not stated) | 10.9 µM |
| O=C(c1cc(COc2ccc3ncccc3c2)on1)N1CCCCCC1 | 8.02 µM |
| O=C(CSC1c2ccccc2-c2ccccc21)N/N=C/c1ccccc1O | 6.8 µM |
| Cc1sc2ncnc(N/N=C/c3ccccc3O)c2c1C | 3.03 µM |
| Oc1ccccc1C(Nc1nccs1)c1ccc2cccnc2c1O (configuration not stated) | 4.91 µM |
| CC(CNC(=O)c1ccc(OC2CCN(Cc3ccccn3)CC2)cc1)Oc1cccnc1 (configuration not stated) | 7.36 µM |
| Cc1cccc2c(C(=O)N3CCN(c4ccccn4)CC3)cc(-c3cccc(Br)c3)nc12 | 3.08 µM |
| Cc1ccc(Nc2nc(NCc3ccco3)c3ccccc3n2)cc1 | 8.02 µM |
| CCN(CC)S(=O)(=O)c1ccc(Cl)c(C(=O)Nc2ccc(Cl)cc2[N+](=O)[O-])c1 | 7.97 µM |
| CCCCC(=O)NC(c1ccc(Cl)cc1)c1ccc2cccnc2c1O (configuration not stated) | 1.35 µM |
| O=C(c1cc(-c2cccc(Cl)c2)nc2ccccc12)N1CCN(c2ccccn2)CC1 | 12.4 µM |
| CCO[C@H]1OC(C(=O)N2CCN(Cc3ccc4c(c3)OCO4)CC2)=C[C@@H](c2csc3ccccc23)[C@@H]1CCCO | 6.01 µM |

| SMILES | AC50 |
| --- | --- |
| O=C(Nc1cccc(NC(=O)c2ccccc2Cl)c1)c1ccc([N+](=O)[O-])o1 | 7.58 µM |
| CCCCCCc1cc2cc(-c3nnc(-c4ccccc4)o3)c(=O)oc2cc1O | 7.25 µM |
| CCCCOc1ncnc2c1[nH]c1ccc(F)cc12 | 5.3 µM |
| COc1cccc(C(NC(C)=O)c2ccc3cccnc3c2O)c1 (configuration not stated) | 3.78 µM |
| NC(=O)c1c(-c2ccc(Cl)cc2Cl)csc1NC(=O)Cc1ccccc1 | 4.08 µM |
| CN1C2CCC1/C(=C/c1ccccn1)C(=O)/C2=C\c1ccccn1 | 2.11 µM |
| C=CC[n+]1c(-c2ccc(OCC)cc2)csc1NNC(=O)Nc1ccccc1 | 12.1 µM |
| CC(C)(C)c1ccc(C(=O)Nc2ccc(C(=O)NCc3cccnc3)cc2)cc1 | < 0.195 µM |
| CC(C)[C@H]1C(=O)O[C@H](C(C)C)C(=O)N(C)[C@@H](C(C)C)C(=O)O[C@H](C(C)C)C(=O)N(C)[C@@H](C(C)C)C(=O)O[C@H](C(C)C)C(=O)N1C | 3.8 µM |
| Cc1cccnc1CN1CCN(C(=O)c2cc(COc3ccc4ncccc4c3)on2)CC1 | 5.44 µM |
| Oc1ccc(Nc2nc(N3CCCC3)c3ccccc3n2)cc1 | 18.9 µM |
| Cc1ccc(NC(=O)c2ccc([N+](=O)[O-])o2)cc1S(=O)(=O)N1CCOCC1 | 14.3 µM |
| CCN(Cc1ccccc1)C(c1cccs1)c1nnnn1C1CCCCC1 (configuration not stated) | 13.4 µM |
| O=C1C(Cl)=C(NCc2cccnc2)C(=O)c2ccccc21 | 14.3 µM |
| CC[N+]1=C(C)C(C)(C)c2cc(C)ccc21 | 8.15 µM |
| Cc1nc(Nc2cnc(/C=C/c3cc(C(=O)Nc4cccc(C(F)(F)F)c4)ccc3C)cn2)cc(N2CCNCC2)n1 | 12.3 µM |
| O=C(CCC1CCCC1)Nc1ccc(C(=O)NCc2cccnc2)cc1 | < 0.195 µM |
| CC(C)n1cnc2c(NCc3ccccc3)cc(N[C@H](C)CO)cc21 | 13.7 µM |
| N=c1ccn(Cc2ccc(Cl)cc2Cl)cc1 | 7.81 µM |
| COc1cc(SC)ccc1C(=O)Nc1nc2ccccc2[nH]1 | 1.21 µM |
| Cc1ccc(NC2=C/C(=N/S(=O)(=O)c3cccs3)c3ccccc3C2=O)cc1 | 2.37 µM |
| CC1CCN(Cc2c(C(=O)N/N=C/c3cc(Cl)ccc3O)nnn2-c2nonc2N)CC1 | 2.08 µM |
| O=S(=O)(/C(=C/c1ccc(C(F)(F)F)cc1)c1nc2ccccc2[nH]1)c1ccccc1 | 5.45 µM |
| Cc1ccc(C)c(NC(=O)c2ccccc2NS(=O)(=O)c2cc([N+](=O)[O-])ccc2C)c1 | 3.94 µM |
| O=C(Nc1ccc(OC(F)F)c(Cl)c1)C(c1ccccc1)c1ccccc1 | 13 µM |
| COC(=O)C1=C(C)N(Cc2ccccc2)C(=NCc2cccc(C(F)(F)F)c2)N[C@H]1c1cccc(C(F)(F)F)c1 | 7.34 µM |
